Target: T1, IKr (rapidly activating delayed rectifier K+ current) (Cavia porcellus, UniProt O08703)
T1 construct: Guinea pig ventricular myocytes were isolated; endogenous in cells; host or cells: isolated guinea pig ventricular myocytes
T1 sequence (O08703 1-1294): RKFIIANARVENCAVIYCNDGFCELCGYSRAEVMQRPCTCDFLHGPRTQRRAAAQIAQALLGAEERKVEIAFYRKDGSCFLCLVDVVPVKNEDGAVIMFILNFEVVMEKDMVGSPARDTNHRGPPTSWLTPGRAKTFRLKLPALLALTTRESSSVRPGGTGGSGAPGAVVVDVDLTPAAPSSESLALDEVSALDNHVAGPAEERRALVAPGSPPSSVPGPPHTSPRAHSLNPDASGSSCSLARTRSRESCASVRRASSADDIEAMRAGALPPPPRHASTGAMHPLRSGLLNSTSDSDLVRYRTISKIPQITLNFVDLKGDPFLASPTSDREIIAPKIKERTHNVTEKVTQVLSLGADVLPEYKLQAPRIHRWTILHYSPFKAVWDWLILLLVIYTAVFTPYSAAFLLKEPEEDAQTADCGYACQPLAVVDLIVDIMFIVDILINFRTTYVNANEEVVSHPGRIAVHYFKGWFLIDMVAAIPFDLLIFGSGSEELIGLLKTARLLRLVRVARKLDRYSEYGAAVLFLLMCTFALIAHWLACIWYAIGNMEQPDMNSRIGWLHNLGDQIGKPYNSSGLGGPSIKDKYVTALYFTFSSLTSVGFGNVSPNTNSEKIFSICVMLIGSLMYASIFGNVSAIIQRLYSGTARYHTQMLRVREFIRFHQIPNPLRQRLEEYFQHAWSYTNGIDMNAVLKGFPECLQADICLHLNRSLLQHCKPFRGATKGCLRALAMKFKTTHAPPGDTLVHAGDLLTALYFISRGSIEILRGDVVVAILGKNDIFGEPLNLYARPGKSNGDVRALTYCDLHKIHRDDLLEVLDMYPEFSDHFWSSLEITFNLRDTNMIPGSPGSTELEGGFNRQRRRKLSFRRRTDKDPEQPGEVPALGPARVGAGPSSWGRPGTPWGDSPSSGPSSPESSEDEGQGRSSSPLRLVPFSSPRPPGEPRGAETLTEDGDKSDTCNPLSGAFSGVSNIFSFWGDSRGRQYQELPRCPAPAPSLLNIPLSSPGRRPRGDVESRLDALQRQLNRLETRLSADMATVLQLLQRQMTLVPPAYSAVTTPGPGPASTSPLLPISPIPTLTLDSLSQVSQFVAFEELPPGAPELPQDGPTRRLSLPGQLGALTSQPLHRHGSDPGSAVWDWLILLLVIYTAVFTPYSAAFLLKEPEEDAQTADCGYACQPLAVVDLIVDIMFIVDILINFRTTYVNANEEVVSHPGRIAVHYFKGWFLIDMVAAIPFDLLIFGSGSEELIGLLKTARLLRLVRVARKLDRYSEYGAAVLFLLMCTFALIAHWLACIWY
Test: voltage clamp measurement of IKr block in isolated guinea pig ventricular myocytes
Format: cell-based
Experimental: Guinea pig ventricular myocytes were isolated using a modification of the procedure described by Mitra R and Morad M., "A Uniform Enzymatic Method for Dissociation of Myocytes from Hearts and Stomachs of Nertilorates", Am. J. Physiol. […] Excised hearts were perfused through the aorta (retrograde fashion) at a rate of 10 ml/min with oxygenated, warmed (37° C.) solutions described below. […] The head was then perfused with the same nominally Ca^2+ -free solution containing 150 units/ml Type II collagenase (Worthington) and 0.5 units/ml Type XIV protease (Sigma) for 8 minutes. This perfusate was followed by a Tyrode's solution containing 0.2 mM CaCl2 (without enzymes) for 5 minutes. The digested ventricles were cut into small pieces and gently shaken until cells were visibly dispersed. The cells were stored at room temperature until use, within 8 hours after isolation.
The suction microelectrode technique described by Giles, W. R. and Shibata, E. F., "Voltage clamp of bull-frog cardiac pacemaker cells: a quantitative, analysis of potassium currents". J. Physiol. […] Microelectrodes were made by using a two stage puller from square bore (1.0 mm o.d.) borosilicate capillary tubing. […] After establishing whole-cell recording mode, negative pressure was maintained on the pipette using a 1 ml gas-tight syringe attached via air tight tubing to the suction port of the microelectrode holder. This minimized dialysis of the cell with the pipette solution.
To record K^+ currents, the cells were bathed in a Ca^2+ -free Tyrode's :solution containing […] nisoldipine. […] A List EPC-7 clamp amplifier was used to voltage clamp the isolated cells. […] A variety of voltage pulse protocols were used to measure Ca^2+ current and three types of K^+ currents: inward rectifier (IK1), rapidly activating delayed rectifier (IKr) and the slowly activating delayed rectifier (IKs). Sanguinetti M. C. and Jurkiewicz, N. K., "Two components of cardiac delayed rectifier K^+ current: Differential sensitivity to block by Class III antiarrhythmic agents". […] Data was analyzed as % block from control membrane currents.
Nisoldipins was prepared as a 4 mM stock solution in polyethylne glycol 200. Compounds tested in this series were prepared as 10 mM stock solutions in polyethylene glycol 400 or dimethyl sulfoxide.

`Cc1cccc(NC(=O)N[C@@H]2N=C(c3ccccc3)c3ccccc3N(C)C2=O)c1` [Compound 4, (R)-N-(2,3-dihydro-1-methyl-2-oxo-5-phenyl-1H-1,4-benzodiazepin-3-yl)-N'-(3-methylphenyl)urea] was tested, and the IC50 was roughly 5 µM and the “effect on IKr” value (1 μM) was “Little or no effect”.
